Assay results taken from patent US5011846A, “Medicament compositions derived from quinolizine and quinolizinone and methods of use thereof” (Merrell Dow Pharmaceuticals Inc., priority 1988, dated 1991).
Counter-ions that a name gives are not always drawn.

Key:
acute migraine attack = conditions: cited from earlier work
[1] = tested on: nausea and vomiting induced by cancer chemotherapeutic agents; conditions: animal experimental model (Miner et al.; Costall et al.); cited from earlier work
5-HT M-receptor = conditions: literature values (Fozard et al.), 5-HT receptor antagonism; cited from earlier work
[2] = tested on: Von Bezold-Jarisch Reflex induced by 5-HT; assay: Von Bezold-Jarisch Reflex induced by 5-HT injected intravenously into the rat; assay type: in vivo
Source text: The activity of these compounds against 5-HT can be assessed in vivo by measurement of the effect of the compound on the Von Bezold-Jarisch Reflex induced by 5-HT injected intravenously into the rat (see Paintal A.S., Physiol. Rev. 53, 159-227, 1973; J. R. Fozard, Naunyn-Schmiedeberg's Arch. Pharmacol., 326, 1984, 36-44). The transient cardiac slowing arises from an increased afferent vagus activity arising from stimulation by 5-HT of sensory afferent fibers in and around the heart.

[3] = 0.01-0.1 mg/kg given intravenously

| Structure (SMILES) | prevention of nausea and vomiting induced by cancer chemotherapeutic agents [1] | pA2 (5-HT M-receptor) | other results |
| --- | --- | --- | --- |
| CN1[C@@H]2CC[C@H]1C[C@@H](OC(=O)c1cc(Cl)cc(Cl)c1)C2 [3,5-dichlorobenzoyltropine] | highly effective |  | efficacy in the acute migraine attack (acute migraine attack; double-blind clinical trial (Loisy et al.)): proved an effective treatment |
| CN1[C@@H]2CC[C@H]1C[C@@H](OC(=O)c1c[nH]c3ccccc13)C2 [(3α-tropanyl)-1H-indole-3-carboxylic acid ester] | highly effective |  |  |
| CN1[C@@H]2CC[C@H]1C[C@@H](OC(=O)c1ccccc1)C2 [benzoyltropine] |  | 7.2 |  |
| Cc1cc(C)cc(C(=O)OC2CC3CC4CC(C2)N3CC4=O)c1 (stereo not drawn) [endo-8-(3,5-dimethylbenzoyl-oxy)hexahydro-2,6-methano-2H-quinolizin-3(4H)-one] |  |  | suppression of Von Bezold-Jarisch Reflex response [2, 3]: suppressed the response dose-dependently; suppression of Von Bezold-Jarisch Reflex response ([2]; 0.25-1 mg/kg given orally): suppressed the response dose-dependently |
| O=C(OC1CC2CC3CC(C1)N2CC3=O)c1c[nH]c2ccccc12 (stereo not drawn) [endo-hexahydro-8-(3-indolylcarbonyloxy)-2,6-methano-2H-quinolizin-3(4H)-one hydrochloride] |  |  | suppression of Von Bezold-Jarisch Reflex response [2, 3]: suppressed the response dose-dependently; suppression of Von Bezold-Jarisch Reflex response ([2]; 0.25-1 mg/kg given orally): suppressed the response dose-dependently |
| CCN(CC)CCNC(=O)c1cc(Cl)c(N)cc1OC [metoclopramide] | highly effective | 7.2 | relief of an acute migraine attack (acute migraine attack; slow intravenous injection, 10 mg (Hughes 1977)): immediate relief of an acute migraine attack |
| COC(=O)[C@H]1[C@@H](OC(=O)c2ccccc2)C[C@@H]2CC[C@H]1N2 [nor (-) cocaine] |  | 7.7 |  |
| CN1[C@@H]2CC[C@H]1C[C@H](OC(=O)c1ccccc1)C2 [pseudotropyl benzoate] |  | 7.0 |  |
